Source: patent publication US20100190187A1, “Screening Assays for Antagonists and Analyses of Cardiac Hypertrophy” (The Regents of the University of Michigan Office of …, priority 2006, published 2010)

Experiments:
HL-1 cells [1] = experiment: Western blot of hypertrophy biomarkers in HL-1 cells; type: cell-based, murine; conditions: for dose dependence of expression of the VDR: FIG. 13(C), compared to control
Protocol: Screening assays employing incubation of VDR containing cells with and without a test compound. Cell extracts can be prepared and screened for increases or decreases of cardiac hypertrophy biomarkers or increase in PKC activity, VDR expression, myotrophin expression, using antibody detection methods described herein. Equivalent protein quantities of test compound cell extracts and control cell extracts can be loaded onto continuous or discontinuous PAGE gels and electrophoresed from 15 min to 24 hours, depending on the size of the gel. Following electrophoresis, the proteins can be electrophoretically transferred to PVDF membranes and probed with antibodies specific for example to Protein Kinase C and downstream regulated products c-myc, VDR, ANP, calbindin 9 and 32 and myotrophin. Bound antibodies can be visualized using chemiluminescent detection, chromatic detection or any method of detection of labeled membrane bound antibodies otherwise known as Western blotting. […] In FIG. 13(A), Western blots reveal that when HL-1 cells are incubated in the presence of a control sample (left lane) and a test compound (right lane). In some embodiments, for example, Vitamin D3 analog or metabolite, can be the test compound, or Vitamin D3 can be a control to measure the activity of the test compound. As shown in FIG. 13(A), Vitamin D3 reduces the expression of ANP, c-myc and calbindin 9 as compared to cells not incubated in the presence if Vitamin D3. […] Vitamin D3 has a positive up-regulating effect upon the expression of the VDR in HL-1 cells.
Treated and control samples of HL-1 cells are trypsinized and removed from flasks. Cell counts are performed under microscope with a Fisher hemacytometer. Samples are centrifuged at 3000 RPM for 2 minutes to obtain a pellet, which is then re-suspended in an SDS-leupeptin sample buffer (SB). This whole cell lysate can then be boiled for 15 minutes, separated into working aliquots, and stored at −20° C. for analysis. Standard Bradford Protein Determination is then performed on all samples. Samples are then electrophoresed as described in Example 4. Following electrophoresis, protein is transferred onto a PVDF (Millipore) membrane. After blocking the membrane for one hour with 5% milk in TBS containing 0.05% Tween 20 (Sigma), the blots are incubated with primary and secondary antibodies according to the dilutions listed below. The blot is washed three times in TBS/0.5% Tween 20 after each incubation, followed by one final wash in TBS. The membrane can then be treated with ECL developer (Amersham Biosciences) and exposed to Kodak Biomax XAR film. To confirm equal loading of protein into the wells each blot can be stripped and re-probed with HRP conjugated goat anti-mouse actin antibody (sc-1616HRP; Santa Cruz Biotechnology Co; 1:1000). The primary antibodies that can be used include rabbit anti-mouse VDR (sc-1008; Santa Cruz Bio; 1:200 dilution); rabbit anti-mouse ANP (AB 5490; Chemicon; 1:500 dilution), mouse monoclonal anti-myotrophin (V11220; BD Transduction Laboratory; 1:1000), rabbit anti-mouse c-myc (sc-764, Santa Cruz Bio; 1:100), and goat anti-mouse calbindin-9 (sc-18038, Santa Cruz Bio; 1:100). The secondary antibodies which can be used include HRP conjugated goat anti-rabbit (AP 132P, Chemicon; 1:1000) for VDR, ANP, and c-myc. HRP conjugated goat anti-mouse (A 2304, Sigma; 1:1000), and bovine anti-goat Ab (sc2350, Santa Cruz Bio; 1:250), for myotrophin and calbindin-9, respectively.

HL-1 cells [2] = experiment: HL-1 cell morphology by light microscopy; type: cell-based, murine; conditions: FIG. 11, versus control vehicle
Protocol: In some embodiments, screening assays can be included to determine whether the test compound can alter the structural morphology of the cardiac myocyte in cell culture. HL-1 cells can be incubated in the presence and absence of a test compound to determine whether structural changes can be observed by light microscopy.
HL-1 cells are obtained from Dr. W. C. Claycomb, Louisiana State University Medical Center, New Orleans, La. HL-1 cells (passages 55-75) are maintained at 37° C. under a 5% C02/air atmosphere in Claycomb medium (JRL Bioscience) supplemented with 10% fetal bovine serum, 0.29 mg/mL L-glutamine, 100 units/mL penicillin, 100 μg/mL streptomycin (all Gibco), and 0.1 mM norepinephrine (Sigma). The medium can be replaced approximately every 24 hours. HL-1 cells were grown in T25 culture flasks which were precoated overnight with 2 μg/cm fibronectin/0.02% gelatin solution. HL-1 cells were maintained until they reached confluence at which time the cells were removed by trypsinization and passed into another T25 culture flask coated with gelatin/fibronectin. Cells can be ultimately passed into T75 flasks to increase the number of cells prior to experimentation. Vitamin D experiments are performed in either T75 flasks, or Lab-Tech 2-well slides (for immunohistochemistry), 24 hours after a 1:2 split of confluent cells. […]

C=C1CC[C@H](O)C/C1=C/C=C1\CCC[C@]2(C)[C@@H]([C@H](C)CCCC(C)C)CC[C@@H]12 [Vitamin D3]
levels of intracellular ANP (HL-1 cells [1]; FIG. 13(A)): significantly reduced levels | levels of intracellular Calbindin 9 (HL-1 cells [1]; FIG. 13(A)): significantly reduced levels | levels of intracellular c-myc (HL-1 cells [1]; FIG. 13(A)): significantly reduced levels | expression of the VDR (HL-1 cells [1]; FIG. 13(B), 1 and 24 hours post exposure): up-regulated | dose dependence of expression of the VDR (HL-1 cells [1]): dose dependent | dose dependence of expression of the VDR (HL-1 cells [1]; listed as Vitamin D 3): dose dependent induction of expression of VDR | structural morphology of HL-1 cells (HL-1 cells [2]): growth and presence of structural appendages called dendrites
